Data: US20050143463A1, “Method of inhibiting angiogenesis” (THE QUEEN ELIZABETH HOSPITAL RESEARCH FOUNDATION INC., priority 2002, published 2005)
Like-named read-outs stand apart in the source and are kept apart here.

What was measured:
[1] = test system: Human umbilical vein endothelial cells (HUVEC); test: HUVEC proliferation assay (tritiated thymidine uptake); format: cell-based; conditions: for inhibition of HUVEC proliferation in vitro, dose dependent (in words): dose dependent manner
Description: Human umbilical vein endothelial cells (HUVEC) were seeded in 96-well flat bottomed tissue culture plates at a density of 2.5-5×10^4 cells/well and treated with various dilutions of agents. Cells were cultured in RPMI medium containing 20% FCS, Penicillin/Streptomycin in a 5% CO2 atmosphere at 37° C. After 24 to 48 hours of incubation, cells were pulsed with 1 μCi of tritiated thymidine for 6 hours. The pulsed cells were trypsinised to detach from the wells and then harvested in a TOMTEC Cell Harvester onto glass fibre filters, which were dried and immersed in scintillation fluid and counted in a Wallac Microbeta scintillation counter. The results were reported as mean cpm±SD.

[2] = test system: corneal neovascularisation; test: Mouse corneal vascularisation model (cornea scratched and infected with Pseudomonas aeruginosa 6294); format: in vivo, BALB/c mice; conditions: for vascularisation of the cornea compared to Groups 1 and 2 (photomicrographs): Group 3, 200 μmol/10 μL topical; for Percentage of animals showing vascularisation in the infected eye / animals showing vascularisation in the infected eye (number/total): 12-MTA 200 μmol/10 μL topical, every second day from day 4; for corneal neovascularisation in mice (in words): mouse, in vivo
Text: To induce neovascularisation in the cornea of mice, cornea were scratched and infected with Pseudomonas aeruginosa as essentially described in Cole, N., Willcox, M. D. P., Fleiszig, S. M. J., Stapleton, F., Bao, S., Tout, S., Husband, A. J. (1998) “Different strains of Pseudomonas aeruginosa isolated from ocular infections or inflammation display distinct corneal pathologies in an animal model.” Curr. Eye Res., 17:730-735.
Briefly, stock cultures of P. aeruginosa 6294 stored in 30% glycerol at −70° C. were inoculated into 10 mL of tryptone soya broth (Oxoid Ltd, Sydney, Australia). Cultures were prepared as previously described (Cole et al. (1998) Curr. Eye Res. 17:730-735) and suspended in phosphate buffered saline (PBS) to a concentration of 4×10^8 cfu (colony forming units)/ml. Bacterial concentration was adjusted turbidimetrically and the dose confirmed retrospectively by viable counts.
Inbred 6-8 week old BALB/c mice were anaesthetised with Averin (125 mg/kg, intraperitoneally) and the corneal surfaces of the eyes were incised with a sterile 27 gauge needle. 5 μL of the bacterial suspension (2.0×10^6 cfu) of strain 6294 was pipetted directly onto the wounded cornea of the left eye only. The right eye of each animal served as a control and was scratched but not infected. A minimum of eight mice per treatment group were used.
12-MTA at 200 μmol/10 μL was prepared as an emulsion in unpreserved paraffin and lanolin ophthalmic ointment base (Polyvisc, Alcon, Belgium) for topical application. Animals were divided into three treatment groups: Group 1 received no treatment; Group 2 received 10 μL of vehicle topically to the cornea per treatment to both the challenged and scratch control eye; and Group 3 received 10 μL of the 12-MTA as described above to both the challenged and scratch control eyes. The treatment schedule was begun four days after challenge and then every second day until the termination of the experiment 14 days post-challenge.
Mice were examined prior to bacterial challenge, immediately subsequent to bacterial challenge and 7 and 14 days post-challenge by a masked observer. The animals were anaesthetised for examination as described above and the corneas were examined at 48× magnification under white light using an FS2 photo slit-lamp biomicroscope (Topcon Corporation, Tokyo, Japan). At 7 and 14 days post-challenge, following the white light examination, 1% sodium fluorescein was instilled and the corneas viewed under UV light. Grades of severity of corneal damage were made and measurement of the extent and incursion of vessels into the central cornea were made.
Measurements were examined for significance using non-parametric Kruskal-Wallis and Mann Whitney U analysis.
For histological examination of corneas, mice were sacrificed at 14 days post-challenge. The eyes were immediately enucleated, fixed in neutral buffered formalin and embedded in paraffin. […] sections were cut and stained with haematoxylin and eosin for histopathological examination.

Aqueous solubility = format: physicochemical
[3] = 50 μM, tritiated thymidine uptake
[4] = 100 μM, tritiated thymidine uptake
[5] = 200 μM, tritiated thymidine uptake
[6] = 400 μM, tritiated thymidine uptake
[7] = 800 μM, tritiated thymidine uptake

CCC(C)CCCCCCCCCCC(=O)O (stereo not shown) [12-MTA, 12-methyltetradecanoic acid]
% Inhibition of HUVEC proliferation ([1]; 50 μM, percentage of control cells with no added agent (Table 1)): 13.3% | Average [1, 3]: 18781.3 cpm | Sample 1 [1, 3]: 19272 cpm | Sample 2 [1, 3]: 19942 cpm | Sample 3 [1, 3]: 17130 cpm | Average [1, 4]: 17593.0 cpm | Sample 1 [1, 4]: 20367 cpm | Sample 2 [1, 4]: 16963 cpm | Sample 3 [1, 4]: 15449 cpm | Average [1, 5]: 15707.7 cpm | Sample 1 [1, 5]: 18491 cpm | Sample 2 [1, 5]: 15435 cpm | Sample 3 [1, 5]: 13197 cpm | HUVEC proliferation (in words) ([1]; 400 μM concentration, tritiated thymidine uptake): inhibited | Average [1, 6]: 12104.7 cpm | Sample 1 [1, 6]: 12558 cpm | Sample 2 [1, 6]: 13837 cpm | Sample 3 [1, 6]: 9919 cpm | microscopic examination of the cells ([1]; 800 μM): appearance of apoptotic cells | Average [1, 7]: 9.0 cpm | Sample 1 [1, 7]: 11 cpm | Sample 2 [1, 7]: 7 cpm | Sample 3 [1, 7]: 9 cpm | inhibition at 50 µM ([1]; Homo sapiens, HUVEC, 50 μM, percentage of control cells with no added agent (Table 1)): 13% | inhibition at 100 µM ([1]; Homo sapiens, HUVEC, 100 μM, percentage of control cells with no added agent (Table 1)): 18.7% | inhibition at 200 µM ([1]; Homo sapiens, HUVEC, 200 μM, percentage of control cells with no added agent (Table 1)): 27.5% | inhibition at 400 µM ([1]; Homo sapiens, HUVEC, 400 μM concentration, percentage of control cells with no added agent (Table 3), read-out: Percentage inhibition of HUVEC proliferation): 32% | inhibition at 400 µM ([1]; Homo sapiens, HUVEC, 400 μM, percentage of control cells with no added agent (Table 1), read-out: % Inhibition of HUVEC proliferation): 44.1% | inhibition at 800 µM ([1]; Homo sapiens, HUVEC, 800 μM, percentage of control cells with no added agent (Table 1)): 99% | inhibition at 100 µM ([1]; Homo sapiens, HUVEC, 24 h, 100 μM 12-MTA, 24 hours (Table 2)): 24.8% | inhibition at 200 µM ([1]; Homo sapiens, HUVEC, 24 h, 200 μM 12-MTA, 24 hours (Table 2)): 30.2% | cell viability ([1]; concentrations between 50 to 400 μM): good viability | inhibition of HUVEC proliferation in vitro, dose dependent (in words) [1]: inhibited in a dose response manner | inhibition of HUVEC proliferation in vitro, dose dependent (in words) ([1]; listed as 12-methyl tetradecanoic acid): inhibit the proliferation | effect on scratch control (uninfected) eyes ([2]; 200 μmol/10 μL topical, any time point): does not affect the cornea | blood vessel formation in the corneal stroma (histological examination) ([2]; 14 days post-challenge, Group 3): reduced blood vessel formation | vascularisation of the cornea compared to Groups 1 and 2 (photomicrographs) ([2]; Day 7): reduced vascularisation | Percentage of animals showing vascularisation in the infected eye ([2]; Day 7 post-challenge): 40% | animals showing vascularisation in the infected eye (number/total) ([2]; Day 7 post-challenge): 4/10 | vascularisation of the cornea compared to Groups 1 and 2 (photomicrographs) ([2]; Day 14): reduced vascularisation | Percentage of animals showing vascularisation in the infected eye ([2]; Day 14 post-challenge): 50% | animals showing vascularisation in the infected eye (number/total) ([2]; Day 14 post-challenge): 5/10 | animals with mild ocular response ([2]; Group 3, Day 14 post-challenge): 60% | animals with severe ocular response ([2]; Group 3, Day 14 post-challenge): 20% | median score of severity of corneal damage (ocular response) ([2]; Group 3, Day 14 post-challenge): 1.65 (range 0-4) | animals with a persistent epithelial defect ([2]; Group 3, first examination): 20% | animals with mild ocular response ([2]; Group 3, first examination): 50% | animals with severe ocular response ([2]; Group 3, first examination): 10% | median score of severity of corneal damage (ocular response) ([2]; Group 3, first examination (Day 7 implied, not given)): 2.1 (range 0.54) | corneal neovascularisation in mice (in words) [2]: inhibited corneal neovascularization | corneal neovascularisation in mice (in words) ([2]; listed as 12-methlytetradecanoic acid): inhibits corneal neovascularisation | aqueous solubility (Aqueous solubility): poor
